Data: ChEMBL document CHEMBL3233001, “Pharmacophoric modifications lead to superpotent αvβ3 integrin ligands with suppressed α5β1 activity” (J Med Chem, 2014)

Columns and labels:
Assay type in all cases: protein-complex assay
Integrin alpha-V/beta-3 = Integrin alpha-V/beta-3 (Homo sapiens, UniProt P05106+P06756); test: Inhibition of vitronectin binding to human alphavbeta3 integrin receptor after 1 hr by competitive solid-phase binding ELISA
Integrin alpha-5/beta-1 = Integrin alpha-5/beta-1 (Homo sapiens, UniProt P05556+P08648); test: Inhibition of fibronectin binding to human alpha5beta1 integrin receptor after 1 hr by competitive solid-phase binding ELISA
[1] = biological target: Integrin alpha-IIb/beta-3 (Homo sapiens, UniProt P05106+P08514); test: Inhibition of fibrinogen binding to alpha2bbeta3 integrin receptor (unknown origin) after 1 hr by competitive solid-phase binding ELISA
Integrin alpha-V/beta-5 = Integrin alpha-V/beta-5 (Homo sapiens, UniProt P06756+P18084); test: Inhibition of vitronectin binding to alphavbeta5 integrin receptor (unknown origin) after 1 hr by competitive solid-phase binding ELISA
Integrin alpha-V/beta-6 = Integrin alpha-V/beta-6 (Homo sapiens, UniProt P06756+P18564); test: Inhibition of LAP binding to human alphavbeta6 integrin receptor after 1 hr by competitive solid-phase binding ELISA

SMILES	IC50 (Integrin alpha-V/beta-3)	IC50 (Integrin alpha-5/beta-1)	IC50 [1]	IC50 (Integrin alpha-V/beta-5)	IC50 (Integrin alpha-V/beta-6)
Cc1cccc(NCCCOc2ccc(C[C@@H](CC(=O)O)NC(=O)c3ccccc3)cc2)n1	110 nM	> 10000 nM	–	–	–
COc1ccnc(NCCCOc2ccc(C[C@@H](CC(=O)NO)NC(=O)c3ccc(OC(C)C)cc3)cc2)c1	638 nM	> 10000 nM	–	–	–

These reach a lower IC50 (Integrin alpha-V/beta-3). Values come first.

IC50 (Integrin alpha-V/beta-3)	IC50 (Integrin alpha-5/beta-1)	IC50 [1]	IC50 (Integrin alpha-V/beta-5)	IC50 (Integrin alpha-V/beta-6)	SMILES
0.86 nM	126 nM	> 10000 nM	227 nM	20 nM	COc1ccnc(NCCCOc2ccc(C[C@@H](CC(=O)O)NC(=O)c3ccc(OC(C)C)cc3)cc2)c1
0.65 nM	108 nM	> 10000 nM	–	–	COc1ccnc(NCCCOc2ccc(C[C@@H](CC(=O)O)NS(=O)(=O)c3ccc(C)cc3)cc2)c1
75.1 nM	> 10000 nM	–	–	–	COc1ccnc(NCCCOc2ccc(C[C@@H](CC(=O)NO)NS(=O)(=O)c3ccc(C)cc3)cc2)c1
1.6 nM	64.2 nM	–	–	–	COc1ccnc(NCCCOc2ccc(C[C@@H](CC(=O)O)NC(=O)c3ccc(F)cc3)cc2)c1
